Experimental data as given in US5039528A, “EAA antagonists as anti-emetic drugs” (priority 1989, dated 1991).

Key:
[1] = tested on: ferrets; conditions: ferrets treated with cisplatin; cited from earlier work
[2] = tested on: cancer patients; conditions: cited from earlier work
[3] = tested on: 5-HT M receptors; conditions: cited from earlier work
[4] = tested on: NMDA receptors; test: Chick retina assay: protection against excitotoxic action of NMDA; assay type: cell-based; conditions: Table 1, normalized to kynurenic acid vs KA = 1
Excerpt: (§1) Antagonist potencies were established in a chick retina assay which has
(§2) (NMDA, KA and Quis) for excitotoxic properties and EAA antagonists for
(§3) potency in protecting the retina against the excitotoxic action of such
(§4) agonists. The concentration of antagonist required to totally prevent the
(§5) toxic action of an agonist was used to compare antagonists for potency.
(§6) For purposes of illustration, the data were normalized by assigning a
(§7) EAA antagonist properties have been described in each category. Antagonis
(§8) potencies were established in a chick retina assay which has been used by
(§9) Quis) for excitotoxic properties and EAA antagonists for potency in
(§10) protecting the retina against the excitotoxic action of such agonists.
(§11) concentration of antagonist required to totally prevent the toxic action
(§12) of an agonist was used to compare antagonists for potency. For purposes o
(§13) to kynurenic acid vs KA (see table 1) and all other values were adjusted

[5] = tested on: KA receptors; test: Chick retina assay: protection against excitotoxic action of KA; assay type: cell-based; conditions: Table 1, normalized to kynurenic acid vs KA = 1
Excerpt: as §1, §2, §3, §4, §5, §6, §7, §8, §9, §10, §11, §12, §13

[6] = tested on: Quis receptors; test: Chick retina assay: protection against excitotoxic action of Quis; assay type: cell-based; conditions: Table 1, normalized to kynurenic acid vs KA = 1
Excerpt: as §1, §2, §3, §4, §5, §6, §7, §8, §9, §10, §11, §12, §13

[7] = tested on: non-NMDA receptors; test: Chick retina assay: blocking non-NMDA receptors; assay type: cell-based; conditions: chick retinas, relative to Kyn
[8] = tested on: EAA receptors (NMDA, KA, Quis); conditions: cited from earlier work
[9] = tested on: dogs; test: Emesis induction by NMDA in dogs; blockage by D-AP5; assay type: in vivo, dog; conditions: IV, in the vicinity of 5 mg/kg
Experimental: Therefore, each dog (all were young adults) was used for more than one experiment. Typically, one or more tests would be done using NMDA to determine an effective dosage for an individual dog. After the dose was established, an experiment was conducted on a subsequent day in which the dog also received 2 mg/kg D-AP5 subcutaneously (SC), along with the NMDA. On the day after that, NMDA was administered alone, to ensure that the emetic response was unchanged and the dog had not developed tolerance or sustained damage to the emesis-mediating reflexes.

[10] = statement in text; cited from earlier work
[11] = tested on: ferrets; test: Emesis induction by cisplatin (8 mg/kg IV) in ferrets; blockage by Kyn; assay type: in vivo, ferret; conditions: cisplatin 8 mg/kg IV alone, 4 ferrets, 5 h observation
Experimental: Four ferrets (a control group) received 8 mg/kg IV cisplatin, a chemotherapeutic drug which has a powerful emetic effect.
Nine ferrets were treated with cisplatin (8 mg/kg IV), and with Kyn, either by bolus (one-shot) injection using 150 mg/kg, or by continuous IV infusion using 50 mg/kg/hour.

[12] = tested on: ferrets; test: Emesis induction by cisplatin (10 mg/kg IV) in ferrets; blockage by D-AP5/CNQX; assay type: in vivo, ferret; conditions: cisplatin 10 mg/kg IV alone, five ferrets, 5 h
Experimental: Since suitable agents such as D-AP5 are available that can block NMDA receptors without crossing the BBB, a mixture of CNQX and D-AP5 was tested to see whether a mixture of an NMDA antagonist and a non-NMDA antagonist would have anti-emetic properties. The dosage of cisplatin was increased to 10 mg/kg IV, since only 3 out of 4 of the control animals vomited when 8 mg/kg was used as described in Example 4. This increased the stringency of the test.
Five control animals (ferrets) were treated.
Five test animals were treated by cisplatin, 10 mg/kg IV, followed by intravenous infusion of a mixture of 15 mg/kg/hr CNQX and 5 mg/kg/hr D-AP5.

[13] = of 20 cancer patients, no control group

For `CN1C2CCCC1CC(NC(=O)c1nn(C)c3ccccc13)C2` (centres unmarked) [BRL 43694], the “preventing or reducing the severity of emesis” value [1] is given as “effective in preventing or reducing the severity of emesis”, the “patients with both nausea and vomiting (delayed in onset)” value [2, 13] is given as 9 patients and the “patients with mild nausea” value [2, 13] is given as 4 patients. The “patients with neither nausea nor vomiting” value [2, 13] was 7 patients, the “cisplatin patients with nausea and vomiting” value ([2]; of the 5 patients that received cisplatin) was 4 patients and the “5-HT M receptor antagonism” value [3] was “more powerful and selective 5-HT M receptor antagonist than metoclopramide”.

For `N#Cc1cc2[nH]c(=O)c(=O)[nH]c2cc1[N+](=O)[O-]` [CNQX], the “EAA antagonist potency vs NMDA” value [4] was 5, the “EAA antagonist potency vs KA” value [5] was 30 and the “EAA antagonist potency vs Quis” value [6] was 67. The “times more powerful than Kyn in blocking non-NMDA receptors” value [7] was “approximately 30 times”, the “block of non-NMDA vs NMDA receptors” value [8] was “block non-NMDA receptors substantially more powerfully than NMDA receptors” and the “potency compared with kynurenic or 7-chloro-kynurenic acid” value [8] was “significantly more powerful”.

For `CN[C@H](CC(=O)O)C(=O)O` [NMDA, N-methyl-D-aspartate], the “emetic response to NMDA” value [9] is given as “vomiting can be induced” and the “penetration of blood brain barriers” value [10] is given as “does not penetrate the BBB”.

In the case of `N.N.[Cl][Pt][Cl]` [cisplatin], the malaise after cisplatin [11] is reported as “All four control animals displayed persistent malaise”, the vomiting after cisplatin [11] is reported as “One control animal did not vomit, but the other three vomited repeatedly” and the appearance of illness [12] is reported as “all appeared ill throughout the observation period”.
